Experimental data from patent publication US12037324B2, “Biarylmethyl heterocycles” (Université de Montréal, priority 2016, dated 2024).

Columns and labels:
AGTR1 = biological target: T1, AGTR1 (Homo sapiens, UniProt P30556); test: DiscoveRx β-arrestin2 recruitment assay (enzyme complementation, Pathunter CHO-K1 AGTR1 β-arrestin cell line); format: cell-based; settings: DiscoveRx β-arrestin2 recruitment; for DiscoveRx β-arrestin2 Ymax (%): maximal response
T1 construct: host or cells: Pathunter CHO-K1 AGTR1 β-arrestin cell line (CHO-K1)
T1 sequence (P30556 1-359): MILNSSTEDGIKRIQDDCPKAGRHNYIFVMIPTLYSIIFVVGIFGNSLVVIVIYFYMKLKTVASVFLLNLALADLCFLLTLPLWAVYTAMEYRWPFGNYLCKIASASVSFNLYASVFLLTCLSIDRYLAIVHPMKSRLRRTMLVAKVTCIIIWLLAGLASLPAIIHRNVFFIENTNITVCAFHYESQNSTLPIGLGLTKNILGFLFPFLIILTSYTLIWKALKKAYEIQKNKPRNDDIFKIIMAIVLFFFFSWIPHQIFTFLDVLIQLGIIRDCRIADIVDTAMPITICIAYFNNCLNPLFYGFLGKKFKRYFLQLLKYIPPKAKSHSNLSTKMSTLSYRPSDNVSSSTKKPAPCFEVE
Procedure, shortened: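 CHO-K1 cells expressing AGTR1 with β-arrestin2 enzyme-complementation reporter, plated 14-16 h ahead in 1% serum medium, then exposed to compounds for 90 min at 37° C. Chemiluminescence read after 1 h detection. EC50 (agonist) or IC50 (antagonist) from 4-parameter logistic fit; activity as percentage of All maximal effect.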

hAT1R [1] = biological target: T2, hAT1R (Homo sapiens, UniProt P30556); test: cell-based; settings: section of the 42nd table ending at r951, example numbering restarts after the DiscoveRx section; read-out: β-arrestin2 EC50
T2 sequence (P30556 1-359): T1 sequence (P30556 1-359)

hAT1R [2] = biological target: T2, hAT1R; test: BRET Gq biosensor assay, agonist response, HEK293 cells; format: cell-based; settings: section of the 42nd table directly before the BRET P63 section
Procedure, shortened: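 HEK293 cells co-transfected with signal-peptide-optimized hAT1R plus Gαq-Rluc, Gβ1 and GFP-Gγ1, assayed 48 h later in Tyrode's buffer pH 7.4. Coelenterazine (2 μM final) added, then compound; BRET2 (515/410 nm) read after 5 min at room temperature. EC50 by 4-parameter fit, normalized to unstimulated (0%) and maximal AngII (100%).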

hAT1R [3] = biological target: T2, hAT1R; test: cell-based; settings: agonist mode; for EC50: read-out: BRET P63 EC50

Compound	EC50 (AGTR1)	DiscoveRx β-arrestin2 Ymax (%) (AGTR1)	EC50 (hAT1R [1])	EC50 (hAT1R [2])	EC50 (hAT1R [3])	BRET P63 Ymax (hAT1R [3])
CCOc1nc2cccc(C(=O)O)c2n1Cc1ccc(-c2cc(-c3cc(C)ccn3)ccc2-c2nn[nH]n2)cc1 [Example 309, 2-ethoxy-1-((5′-(4-methylpyridin-2-yl)-2′-(2H-tetrazol-5-yl)-[1,1′-biphenyl]-4-yl)methyl)-1H-benzo[d]imidazole-7-carboxylic acid]	4.1 nM	80.4%	6.5 nM	7.9 nM	3.8 nM	28.6%
CCOc1nc2cccc(C(=O)O)c2n1Cc1ccc(-c2cc(-c3cc(OC)ccn3)ccc2-c2nn[nH]n2)cc1 [Example 310, 2-ethoxy-1-((5′-(4-methoxypyridin-2-yl)-2′-(2H-tetrazol-5-yl)-[1,1′-biphenyl]-4-yl)methyl)-1H-benzo[d]imidazole-7-carboxylic acid]	14.9 nM	51.4%	10.9 nM	35.3 nM	7.2 nM	29.1%
CCOc1nc2cccc(C(=O)O)c2n1Cc1ccc(-c2cc(N3CCC[C@@H](C)C3)ccc2-c2nn[nH]n2)cc1 [Example 323]	22.2 nM	43.2%	24.4 nM	> 100000 nM	> 10000 nM	–
CCOc1nc2cccc(C(=O)O)c2n1Cc1ccc(-c2cc(-c3cnn(C(F)F)c3)ccc2-c2nn[nH]n2)cc1 [Example 327, 1-((5′-(1-(difluoromethyl)-1H-pyrazol-4-yl)-2′-(2H-tetrazol-5-yl)-[1,1′-biphenyl]-4-yl)methyl)-2-ethoxy-1H-benzo[d]imidazole-7-carboxylic acid]	9.4 nM	64.2%	33 nM	22.1 nM	26.9 nM	10.8%
CCOc1nc2cccc(C(=O)O)c2n1Cc1ccc(-c2cc(Oc3ccccc3)ccc2-c2nn[nH]n2)cc1 [Example 330, 2-Ethoxy-1-((5′-phenoxy-2′-(2H-tetrazol-5-yl)-[1,1′-biphenyl]-4-yl)methyl)-1H-benzo[d]imidazole-7-carboxylic acid]	13.2 nM	57.8%	16.7 nM	40.1 nM	> 10000 nM	–
CCOc1nc2cccc(C(=O)O)c2n1Cc1ccc(-c2cc(Oc3cccnc3)ccc2-c2nn[nH]n2)cc1 [Example 333]	10 nM	67.8%	11.3 nM	17.8 nM	> 10000 nM	–
CCOc1nc2cccc(C(=O)O)c2n1Cc1ccc(-c2cc(Oc3ccccc3F)ccc2-c2nn[nH]n2)cc1 [Example 334]	10.8 nM	73.5%	5.9 nM	41.3 nM	15.7 nM	13.9%

The next lines start with results.

EC50 (AGTR1)	DiscoveRx β-arrestin2 Ymax (%) (AGTR1)	EC50 (hAT1R [1])	EC50 (hAT1R [2])	EC50 (hAT1R [3])	Compound	BRET P63 Ymax (hAT1R [3])
17.4 nM	55.2%	63.2 nM	42.3 nM	> 10000 nM	CCOc1nc2cccc(C(=O)O)c2n1Cc1ccc(-c2cc(N3CCC[C@H](C)C3)ccc2-c2nn[nH]n2)cc1 [Example 324]	–
9.5 nM	45.9%	24.7 nM	16.2 nM	> 100000 nM	CCOc1nc2cccc(C(=O)O)c2n1Cc1ccc(-c2cc(-c3cnc4ccccc4c3)ccc2-c2nn[nH]n2)cc1 [Example 326, 2-ethoxy-1-((5′-(quinolin-3-yl)-2′-(2H-tetrazol-5-yl)-[1,1′-biphenyl]-4-yl)methyl)-1H-benzo[d]imidazole-7-carboxylic acid]	–
13.2 nM	44.5%	8.4 nM	26.4 nM	> 10000 nM	CCOc1nc2cccc(C(=O)O)c2n1Cc1ccc(-c2cc(Oc3cccc(F)c3)ccc2-c2nn[nH]n2)cc1 [Example 331]	–
24.1 nM	30.6%	12.1 nM	106 nM	> 10000 nM	CCOc1nc2cccc(C(=O)O)c2n1Cc1ccc(-c2cc(Oc3cccc(OC)c3)ccc2-c2nn[nH]n2)cc1 [Example 332]	–
